How the values were obtained:
human MAO-B = target: T1, human MAO-B (Homo sapiens, UniProt P27338); assay: MAO-B activity, colorimetric method, benzylamine substrate; format: biochemical; settings: for Specificity of SSAO on MAO-B: ratio of IC50 for MAO-B to IC50 for SSAO; for IC50: recombinant human MAO-B
T1 construct: purchased BD Biosciences (MA, USA)
T1 sequence (P27338 1-520): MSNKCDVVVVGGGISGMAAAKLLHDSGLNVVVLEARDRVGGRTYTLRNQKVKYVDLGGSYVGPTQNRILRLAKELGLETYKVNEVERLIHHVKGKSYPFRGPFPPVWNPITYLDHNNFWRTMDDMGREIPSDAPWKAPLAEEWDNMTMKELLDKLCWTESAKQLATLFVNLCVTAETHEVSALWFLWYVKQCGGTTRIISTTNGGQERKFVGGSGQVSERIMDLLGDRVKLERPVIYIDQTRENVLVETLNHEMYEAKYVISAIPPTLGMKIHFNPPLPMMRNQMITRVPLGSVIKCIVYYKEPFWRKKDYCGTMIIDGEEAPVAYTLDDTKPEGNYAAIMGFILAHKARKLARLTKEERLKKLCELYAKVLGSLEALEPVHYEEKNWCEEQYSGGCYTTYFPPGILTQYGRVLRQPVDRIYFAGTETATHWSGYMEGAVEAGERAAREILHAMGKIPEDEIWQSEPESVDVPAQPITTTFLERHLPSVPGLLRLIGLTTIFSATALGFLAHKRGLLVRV
Protocol: The specificities of the different SSAO inhibitors was tested by determining their abilities to inhibit MAO-A and MAO-B activities in vitro. Recombinant human MAO-A and human MAO-B enzymes were obtained from BD Biosciences (MA, USA). MAO activity was measured using the colorimetric method essentially as described (Holt, A. et al. (1997) Anal. Biochem. 244: 384). A pre-determined amount of inhibitor diluted in 0.2M potassium phosphate buffer, pH 7.6, was added to each well, if required. […] Controls lacked inhibitor. The following agents were then added to a final reaction volume of 200 μL in 0.2M potassium phosphate buffer, pH 7.6: 0.04 mg/ml of MAO-A or 0.07 mg/ml MAO-B enzyme, 15 μL of 10 mM tyramine substrate (for MAO-A), or 15 μL 100 mM benzylamine substrate (for MAO-B), and 50 μL of freshly made chromogenic solution. The chromogenic solution contained 750 μM vanillic acid (Sigma#V-2250), 400 μM 4-aminoantipyrine (Sigma #A-4328) and 12 U/mL horseradish peroxidase (Sigma #P-8250) in order to cause a change of 0.5 OD A490 nm/h. […] The plates were incubated for 60 min at 37° C. The increase in absorbance, reflecting MAO activity, was measured at 490 nm using microplate spectrophotometer (Power Wave 40, Bio-Tek Inst.). Inhibition was presented as percent inhibition compared to control after correcting for background absorbance and IC50 values calculated using GraphPad Prism software. Clorgyline and pargyline (inhibitors of MAO-A and -B, respectively) at 1 μM, were added to some wells as positive controls for MAO inhibition.

Rat SSAO = target: T2, Rat SSAO (Rattus norvegicus, UniProt O08590); assay: In vitro inhibition of SSAO activity, rat lung homogenate, 14C-benzylamine; format: biochemical
T2 construct: rat lung or human umbilical cord homogenates were prepared by chopping the freshly removed tissue; from tissue; host or cells: rat lung homogenate (1000 g supernatant)
T2 sequence (O08590 1-763): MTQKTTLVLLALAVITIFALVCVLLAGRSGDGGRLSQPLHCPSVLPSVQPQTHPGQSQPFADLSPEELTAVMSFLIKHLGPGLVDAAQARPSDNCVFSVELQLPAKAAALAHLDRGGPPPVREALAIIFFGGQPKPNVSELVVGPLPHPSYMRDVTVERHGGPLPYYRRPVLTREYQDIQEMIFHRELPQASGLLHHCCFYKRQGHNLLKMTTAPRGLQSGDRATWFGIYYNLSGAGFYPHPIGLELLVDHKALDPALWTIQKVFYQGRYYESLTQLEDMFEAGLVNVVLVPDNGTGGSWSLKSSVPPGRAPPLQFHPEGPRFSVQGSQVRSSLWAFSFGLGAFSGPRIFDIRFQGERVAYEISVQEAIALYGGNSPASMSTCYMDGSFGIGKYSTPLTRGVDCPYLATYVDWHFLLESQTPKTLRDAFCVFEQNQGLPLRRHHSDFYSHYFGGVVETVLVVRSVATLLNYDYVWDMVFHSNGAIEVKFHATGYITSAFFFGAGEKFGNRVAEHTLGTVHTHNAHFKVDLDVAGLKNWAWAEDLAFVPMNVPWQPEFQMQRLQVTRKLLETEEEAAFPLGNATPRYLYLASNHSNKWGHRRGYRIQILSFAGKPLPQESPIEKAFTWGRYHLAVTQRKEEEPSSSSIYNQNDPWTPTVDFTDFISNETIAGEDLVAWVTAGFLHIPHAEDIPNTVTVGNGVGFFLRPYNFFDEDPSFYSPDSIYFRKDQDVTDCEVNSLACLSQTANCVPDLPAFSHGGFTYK
Protocol: SSAO activity was measured as described (Lizcano J M. Et al. (1998) Biochem J. 331:69). Briefly, rat lung or human umbilical cord homogenates were prepared by chopping the freshly removed tissue into small pieces and washing them thoroughly in PBS. The tissue was then homogenized 1:10 (w/v) for lung or 1:5 (w/v) for umbilical cord, in 10 mM potassium phosphate buffer (pH 7.8). Homogenates were then centrifuged at 1000 g at 4° C. for 10 min (lung) or 25,000 g for 30 min (umbilical cord); the supernatants were kept frozen until ready to use. Lung or umbilical cord homogenate was preincubated with clorgyline and pargyline at 1 μM to inhibit MAO-A and -B activity, respectively, and SSAO inhibitors were generally present at 1 nM-10 μM. The reaction was initiated by addition of 20 μM ^14C— benzylamine as substrate. The reaction was carried out at 37° C. in a final volume of 400 μL of 100 mM potassium phosphate buffer (pH 7.2) and stopped with 100 μl of 2M citric acid. Radioactively labeled products were extracted into toluene/ethyl acetate (1:1, v/v) containing 0.6% (w/v) 2,5-diphenyloxazole (PPO) before liquid scintillation counting.

SMILES	Specificity of SSAO on MAO-B (human MAO-B)	IC50 (human MAO-B) [nM]	IC50 (Rat SSAO) [nM]	melting point [°C]
COc1ccc(C/C(=C/F)CN)cc1.Cl [Compound I-1-Z, (Z)-3-Fluoro-2-(4-methoxybenzyl)-allylamine hydrochloride]	88	1600	13	–
CCOc1ccc(C/C(=C\F)CN)cc1.Cl [Compound I-2-E, (E)-3-Fluoro-2-(4-ethoxybenzyl)-allylamine hydrochloride]	189	1700	8	167 to 168
CCOc1ccc(C/C(=C/F)CN)cc1.Cl [Compound I-2-Z, (Z)-3-Fluoro-2-(4-ethoxybenzyl)-allylamine hydrochloride]	1200	12000	5	153 to 154
NC/C(F)=C\Cc1cc(F)cc(C(F)(F)F)c1 [II-1-E, (E)-2-Fluoro-4-(3-fluoro-5-trifluoromethylphenyl)-but-2-enylamine]	>2400	> 87000	38	–
